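Test compounds were applied to cells in 96-well plates for 48 hours at 5 doses. GI50 = concentration required for 50% inhibition of growth.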 Active and inactive are the calls of the source. No stated cut-off is given here; in the data, active = GI50 up to about 1.1 µM and inactive = higher.
Assays:
Test in all cases: growth of human tumour cells (NCI), 48 h
HOP-62 = system: HOP-62
COLO 205 = system: COLO 205
786-0 = system: 786-0
NCI-H23 = system: NCI-H23
IGROV-1 = system: IGROV-1
SF-295 = system: SF-295
SNB-19 = system: SNB-19
NCI/ADR-RES = system: NCI/ADR-RES
U-251 = system: U-251
SK-MEL-2 = system: SK-MEL-2
UACC-62 = system: UACC-62
HCT-116 = system: HCT-116
HCC 2998 = system: HCC 2998
SF-268 = system: SF-268
PC-3 = system: PC-3
SK-MEL-28 = system: SK-MEL-28
OVCAR-3 = system: OVCAR-3
NCI-H522 = system: NCI-H522
RPMI-8226 = system: RPMI-8226
M14 = system: M14
RXF 393 = system: RXF 393
Hs-578T = system: Hs-578T
SK-OV-3 = system: SK-OV-3
HT-29 = system: HT-29
OVCAR-8 = system: OVCAR-8
OVCAR-5 = system: OVCAR-5
LOX IMVI = system: LOX IMVI
MCF7 = system: MCF7
DU-145 = system: DU-145
EKVX = system: EKVX
Malme-3M = system: Malme-3M
CAKI-1 = system: CAKI-1
MOLT-4 = system: MOLT-4
KM12 = system: KM12
MDA-N = system: MDA-N
UO-31 = system: UO-31
BT-549 = system: BT-549
NCI-H226 = system: NCI-H226
MDA-MB-435 = system: MDA-MB-435
SN12C = system: SN12C
A498 = system: A498
SNB-75 = system: SNB-75
ACHN = system: ACHN
UACC-257 = system: UACC-257
T47D = system: T47D
K562 = system: K562
SR = system: SR
SF-539 = system: SF-539
SK-MEL-5 = system: SK-MEL-5
HOP-92 = system: HOP-92
A549 = system: A549
CCRF-CEM = system: CCRF-CEM
HCT-15 = system: HCT-15
MDA-MB-231 = system: MDA-MB-231
OVCAR-4 = system: OVCAR-4
SW-620 = system: SW-620
TK-10 = system: TK-10
NCI-H460 = system: NCI-H460
HL-60 = system: HL-60

In the case of OC(C1=C/C(=C\c2ccncc2)c2ccccc21)c1ccncc1 (centres undefined), the GI50 (HOP-62) is reported as 10.2 µM (inactive), the GI50 (COLO 205) is reported as 14.5 µM (inactive) and the GI50 (786-0) is reported as 12.9 µM (inactive). The GI50 (NCI-H23) was 12.4 µM (inactive), the GI50 (IGROV-1) was 14.4 µM (inactive) and the GI50 (SF-295) was 8.65 µM (inactive). For the same compound, the GI50 (SNB-19) was 19.1 µM (inactive), the GI50 (NCI/ADR-RES) was 14.6 µM (inactive) and the GI50 (U-251) was 14.7 µM (inactive). For the same compound, the GI50 (SK-MEL-2) was 14.3 µM (inactive), the GI50 (UACC-62) was 9.16 µM (inactive) and the GI50 (HCT-116) was 13.6 µM (inactive). For the same compound, the GI50 (HCC 2998) was 8.39 µM (inactive), the GI50 (SF-268) was 18.5 µM (inactive) and the GI50 (PC-3) was 10.8 µM (inactive). For the same compound, the GI50 (SK-MEL-28) was 14.3 µM (inactive), the GI50 (OVCAR-3) was 11.1 µM (inactive) and the GI50 (NCI-H522) was 9.48 µM (inactive). For the same compound, the GI50 (RPMI-8226) was 2.37 µM (inactive), the GI50 (M14) was 12.4 µM (inactive) and the GI50 (RXF 393) was 14 µM (inactive). The GI50 (Hs-578T) was 12.2 µM (inactive), the GI50 (SK-OV-3) was 13.8 µM (inactive) and the GI50 (HT-29) was 11.8 µM (inactive). The GI50 (OVCAR-8) was 22.2 µM (inactive), the GI50 (OVCAR-5) was 15.8 µM (inactive) and the GI50 (LOX IMVI) was 12.1 µM (inactive). The GI50 (MCF7) was 9.86 µM (inactive), the GI50 (DU-145) was 17 µM (inactive) and the GI50 (EKVX) was 5.65 µM (inactive). For the same compound, the GI50 (Malme-3M) was 15.1 µM (inactive), the GI50 (CAKI-1) was 7.83 µM (inactive) and the GI50 (MOLT-4) was 5.71 µM (inactive). For the same compound, the GI50 (KM12) was 15.6 µM (inactive), the GI50 (MDA-N) was 10.8 µM (inactive) and the GI50 (UO-31) was 8.99 µM (inactive). For the same compound, the GI50 (BT-549) was 19 µM (inactive), the GI50 (NCI-H226) was 13.6 µM (inactive) and the GI50 (MDA-MB-435) was 12 µM (inactive). For the same compound, the GI50 (SN12C) was 13.9 µM (inactive), the GI50 (A498) was 12.9 µM (inactive) and the GI50 (SNB-75) was 5.85 µM (inactive). The GI50 (ACHN) was 14.8 µM (inactive), the GI50 (UACC-257) was 6.34 µM (inactive) and the GI50 (T47D) was 4.38 µM (inactive). The GI50 (K562) was 4.72 µM (inactive), the GI50 (SR) was 5.4 µM (inactive) and the GI50 (SF-539) was 13.9 µM (inactive). For the same compound, the GI50 (SK-MEL-5) was 3.21 µM (inactive), the GI50 (HOP-92) was 13.6 µM (inactive) and the GI50 (A549) was 13.3 µM (inactive). The GI50 (CCRF-CEM) was 7.41 µM (inactive), the GI50 (HCT-15) was 16.5 µM and the GI50 (MDA-MB-231) was 6.98 µM (inactive). The GI50 (OVCAR-4) was 12.4 µM (inactive), the GI50 (SW-620) was 23 µM (inactive) and the GI50 (TK-10) was 13.6 µM (inactive). The GI50 (NCI-H460) was 12.9 µM (inactive) and the GI50 (HL-60) was 1.66 µM (inactive).
